Test results: the supplement of paper PMC10307832

How the values were obtained:
Assay in all cases: relative viability (nuclei count vs DMSO), 5 days (fraction); higher = more cells survive
[1] = compound: C[C@@H](N)c1ccc(C(=O)Nc2ccnc3[nH]ccc23)cc1 + C[C@]1(O)C[C@@H](c2nc(-c3ccc4ccc(-c5ccccc5)nc4c3)c3c(N)nccn32)C1 [Linsitinib] (partner 1 µM)
How it was run: (§1)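 After 5 days of treatment, lung cancer cells in 1536-well plates were fixed and stained in a single step (final 0.05% Triton X-100, 1% formaldehyde, 1 ug/ml Hoechst) and their nuclei counted on 4× images. Treatment had been applied by pin tool the day after seeding as one drug alone or as a fixed anchor-drug dose with five library-drug doses (not always all listed) in √10 steps. Relative viability is the nuclei count of treated wells divided by that of vehicle wells, and values are medians of duplicate plates.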

[2] = compound: O[C@H]1CC[C@H](Nc2ncc3nc(Nc4c(F)cc(F)cc4F)n([C@H]4CCOC4)c3n2)CC1 [Tanzisertib] + CC(=O)c1c(C)c2cnc(Nc3ccc(N4CCNCC4)cn3)nc2n(C2CCCC2)c1=O [Palbociclib] (partner 0.5 µM)
How it was run: as §1

[3] = compound: C[C@@H](N)c1ccc(C(=O)Nc2ccnc3[nH]ccc23)cc1 + CC(=O)c1c(C)c2cnc(Nc3ccc(N4CCNCC4)cn3)nc2n(C2CCCC2)c1=O [Palbociclib] (partner 0.5 µM)
How it was run: as §1

[4] = compound: C1CNCCC1C2=CC(=NN2)C3=CC=NC=C3 + NC(=O)Nc1cc(-c2cccc(F)c2)sc1C(=O)N[C@H]1CCCNC1 [AZD7762] (partner 0.2 µM)
How it was run: as §1

For NCI-H1651, the relative viability ([1]; first compound 0.04 µM) was 1.12, the relative viability ([1]; first compound 0.1265 µM) was 0.932 and the relative viability ([1]; first compound 0.4 µM) was 0.987. For the same cell line, the relative viability ([1]; first compound 1.265 µM) was 1.13, the relative viability ([1]; first compound 4 µM) was 0.994 and the relative viability ([2]; first compound 0.08 µM) was 0.552. The relative viability ([2]; first compound 0.253 µM) was 0.537, the relative viability ([2]; first compound 0.8 µM) was 0.508 and the relative viability ([2]; first compound 2.53 µM) was 0.502. For the same cell line, the relative viability ([2]; first compound 8 µM) was 0.519, the relative viability ([3]; first compound 0.04 µM) was 0.509 and the relative viability ([3]; first compound 0.1265 µM) was 0.567. It also gave a relative viability ([3]; first compound 0.4 µM) of 0.554, a relative viability ([3]; first compound 1.265 µM) of 0.601 and a relative viability ([3]; first compound 4 µM) of 0.567. It also gave a relative viability ([4]; first compound 0.08 µM) of 0.463, a relative viability ([4]; first compound 0.8 µM) of 0.427 and a relative viability ([4]; first compound 2.53 µM) of 0.488. The relative viability ([4]; first compound 8 µM) was 0.543.

With NCI-H1666 the relative viability ([1]; first compound 0.04 µM) was 0.849, the relative viability ([1]; first compound 0.1265 µM) was 1.04 and the relative viability ([1]; first compound 0.4 µM) was 1.01. It also gave a relative viability ([1]; first compound 1.265 µM) of 1.12, a relative viability ([1]; first compound 4 µM) of 0.966 and a relative viability ([2]; first compound 0.08 µM) of 0.675. It also gave a relative viability ([2]; first compound 0.253 µM) of 0.729, a relative viability ([2]; first compound 0.8 µM) of 0.65 and a relative viability ([2]; first compound 2.53 µM) of 0.688. It also gave a relative viability ([2]; first compound 8 µM) of 0.639, a relative viability ([3]; first compound 0.04 µM) of 0.661 and a relative viability ([3]; first compound 0.1265 µM) of 0.63. For the same cell line, the relative viability ([3]; first compound 0.4 µM) was 0.636, the relative viability ([3]; first compound 1.265 µM) was 0.616 and the relative viability ([3]; first compound 4 µM) was 0.668. For the same cell line, the relative viability ([4]; first compound 0.08 µM) was 0.829, the relative viability ([4]; first compound 0.8 µM) was 0.847 and the relative viability ([4]; first compound 2.53 µM) was 1.04. It also gave a relative viability ([4]; first compound 8 µM) of 1.

Cell Line NCI-H1734 has a relative viability ([1]; first compound 0.04 µM) of 0.901, a relative viability ([1]; first compound 0.1265 µM) of 0.905 and a relative viability ([1]; first compound 0.4 µM) of 0.805. It also gave a relative viability ([1]; first compound 4 µM) of 0.708, a relative viability ([2]; first compound 0.08 µM) of 0.361 and a relative viability ([2]; first compound 0.253 µM) of 0.335. For the same cell line, the relative viability ([2]; first compound 0.8 µM) was 0.321, the relative viability ([2]; first compound 2.53 µM) was 0.343 and the relative viability ([2]; first compound 8 µM) was 0.354. For the same cell line, the relative viability ([3]; first compound 0.04 µM) was 0.316, the relative viability ([3]; first compound 0.1265 µM) was 0.355 and the relative viability ([3]; first compound 0.4 µM) was 0.325. The relative viability ([3]; first compound 1.265 µM) was 0.338, the relative viability ([3]; first compound 4 µM) was 0.277 and the relative viability ([4]; first compound 0.08 µM) was 0.445. It also gave a relative viability ([4]; first compound 0.8 µM) of 0.59, a relative viability ([4]; first compound 2.53 µM) of 0.652 and a relative viability ([4]; first compound 8 µM) of 0.584.

NCI-H1755 was tested, and the relative viability ([1]; first compound 0.04 µM) was 1.03, the relative viability ([1]; first compound 0.1265 µM) was 0.977 and the relative viability ([1]; first compound 0.4 µM) was 0.947. It also gave a relative viability ([1]; first compound 1.265 µM) of 0.86, a relative viability ([1]; first compound 4 µM) of 0.716 and a relative viability ([2]; first compound 0.08 µM) of 0.434. It also gave a relative viability ([2]; first compound 0.253 µM) of 0.453, a relative viability ([2]; first compound 0.8 µM) of 0.433 and a relative viability ([2]; first compound 2.53 µM) of 0.44. For the same cell line, the relative viability ([2]; first compound 8 µM) was 0.439, the relative viability ([3]; first compound 0.04 µM) was 0.432 and the relative viability ([3]; first compound 0.1265 µM) was 0.436. The relative viability ([3]; first compound 0.4 µM) was 0.437, the relative viability ([3]; first compound 1.265 µM) was 0.407 and the relative viability ([3]; first compound 4 µM) was 0.367. The relative viability ([4]; first compound 0.08 µM) was 0.473, the relative viability ([4]; first compound 0.8 µM) was 0.448 and the relative viability ([4]; first compound 2.53 µM) was 0.419. The relative viability ([4]; first compound 8 µM) was 0.561.

For NCI-H1792, the relative viability ([1]; first compound 0.04 µM) was 0.631, the relative viability ([1]; first compound 0.1265 µM) was 0.475 and the relative viability ([1]; first compound 0.4 µM) was 0.558. The relative viability ([1]; first compound 1.265 µM) was 0.676, the relative viability ([1]; first compound 4 µM) was 0.572 and the relative viability ([2]; first compound 0.08 µM) was 0.7. It also gave a relative viability ([2]; first compound 0.253 µM) of 0.66, a relative viability ([2]; first compound 0.8 µM) of 0.654 and a relative viability ([2]; first compound 2.53 µM) of 0.64. For the same cell line, the relative viability ([2]; first compound 8 µM) was 0.573, the relative viability ([3]; first compound 0.04 µM) was 0.685 and the relative viability ([3]; first compound 0.1265 µM) was 0.698. The relative viability ([3]; first compound 0.4 µM) was 0.699, the relative viability ([3]; first compound 1.265 µM) was 0.771 and the relative viability ([3]; first compound 4 µM) was 0.627. The relative viability ([4]; first compound 0.08 µM) was 0.616, the relative viability ([4]; first compound 0.8 µM) was 0.675 and the relative viability ([4]; first compound 2.53 µM) was 0.632. For the same cell line, the relative viability ([4]; first compound 8 µM) was 0.717.

NCI-H1793 was tested, and the relative viability ([1]; first compound 0.04 µM) was 1.02, the relative viability ([1]; first compound 0.1265 µM) was 0.878 and the relative viability ([1]; first compound 0.4 µM) was 0.83. The relative viability ([1]; first compound 4 µM) was 0.787, the relative viability ([2]; first compound 0.08 µM) was 0.306 and the relative viability ([2]; first compound 0.253 µM) was 0.326. For the same cell line, the relative viability ([2]; first compound 0.8 µM) was 0.347, the relative viability ([2]; first compound 2.53 µM) was 0.293 and the relative viability ([2]; first compound 8 µM) was 0.303. The relative viability ([3]; first compound 0.04 µM) was 0.348, the relative viability ([3]; first compound 0.1265 µM) was 0.295 and the relative viability ([3]; first compound 0.4 µM) was 0.355. It also gave a relative viability ([3]; first compound 4 µM) of 0.385, a relative viability ([4]; first compound 0.08 µM) of 0.369 and a relative viability ([4]; first compound 2.53 µM) of 0.615. For the same cell line, the relative viability ([4]; first compound 8 µM) was 0.61.

Work on NCI-H1915 yielded a relative viability ([1]; first compound 0.04 µM) of 1.1, a relative viability ([1]; first compound 0.1265 µM) of 1.13 and a relative viability ([1]; first compound 0.4 µM) of 1.12. The relative viability ([1]; first compound 4 µM) was 1.03, the relative viability ([2]; first compound 0.08 µM) was 0.58 and the relative viability ([2]; first compound 0.253 µM) was 0.514. It also gave a relative viability ([2]; first compound 0.8 µM) of 0.55, a relative viability ([2]; first compound 2.53 µM) of 0.506 and a relative viability ([2]; first compound 8 µM) of 0.476. It also gave a relative viability ([3]; first compound 0.1265 µM) of 0.504, a relative viability ([3]; first compound 0.4 µM) of 0.52 and a relative viability ([3]; first compound 4 µM) of 0.431. The relative viability ([4]; first compound 0.08 µM) was 0.704, the relative viability ([4]; first compound 0.8 µM) was 0.745 and the relative viability ([4]; first compound 2.53 µM) was 0.722. For the same cell line, the relative viability ([4]; first compound 8 µM) was 0.704.

NCI-H1944 showed a relative viability ([1]; first compound 0.04 µM) of 1.28, a relative viability ([1]; first compound 0.1265 µM) of 1.16 and a relative viability ([1]; first compound 0.4 µM) of 1.17. For the same cell line, the relative viability ([1]; first compound 4 µM) was 0.835, the relative viability ([2]; first compound 0.08 µM) was 0.322 and the relative viability ([2]; first compound 0.253 µM) was 0.343. The relative viability ([2]; first compound 0.8 µM) was 0.324, the relative viability ([2]; first compound 2.53 µM) was 0.339 and the relative viability ([2]; first compound 8 µM) was 0.295. It also gave a relative viability ([3]; first compound 0.04 µM) of 0.37, a relative viability ([3]; first compound 0.1265 µM) of 0.334 and a relative viability ([3]; first compound 0.4 µM) of 0.351. For the same cell line, the relative viability ([3]; first compound 1.265 µM) was 0.387, the relative viability ([3]; first compound 4 µM) was 0.266 and the relative viability ([4]; first compound 0.08 µM) was 0.442. It also gave a relative viability ([4]; first compound 0.8 µM) of 0.467, a relative viability ([4]; first compound 2.53 µM) of 0.477 and a relative viability ([4]; first compound 8 µM) of 0.503.

With NCI-H1975 the relative viability ([1]; first compound 0.04 µM) was 1.01, the relative viability ([1]; first compound 0.1265 µM) was 0.915 and the relative viability ([1]; first compound 0.4 µM) was 0.964. For the same cell line, the relative viability ([1]; first compound 1.265 µM) was 0.778, the relative viability ([1]; first compound 4 µM) was 0.619 and the relative viability ([2]; first compound 0.08 µM) was 0.735. For the same cell line, the relative viability ([2]; first compound 0.253 µM) was 0.575, the relative viability ([2]; first compound 0.8 µM) was 0.515 and the relative viability ([2]; first compound 2.53 µM) was 0.562. It also gave a relative viability ([2]; first compound 8 µM) of 0.549, a relative viability ([3]; first compound 0.04 µM) of 0.808 and a relative viability ([3]; first compound 0.1265 µM) of 0.673. For the same cell line, the relative viability ([3]; first compound 0.4 µM) was 0.607, the relative viability ([3]; first compound 1.265 µM) was 0.2 and the relative viability ([3]; first compound 4 µM) was 0.321. It also gave a relative viability ([4]; first compound 0.08 µM) of 0.758, a relative viability ([4]; first compound 0.8 µM) of 0.599 and a relative viability ([4]; first compound 2.53 µM) of 0.742. The relative viability ([4]; first compound 8 µM) was 0.679.

For NCI-H1993, the relative viability ([1]; first compound 0.04 µM) was 0.824, the relative viability ([1]; first compound 0.1265 µM) was 0.753 and the relative viability ([1]; first compound 1.265 µM) was 0.834. It also gave a relative viability ([1]; first compound 4 µM) of 0.663, a relative viability ([2]; first compound 0.08 µM) of 0.652 and a relative viability ([2]; first compound 0.253 µM) of 0.531. For the same cell line, the relative viability ([2]; first compound 0.8 µM) was 0.611, the relative viability ([2]; first compound 2.53 µM) was 0.617 and the relative viability ([2]; first compound 8 µM) was 0.595. The relative viability ([3]; first compound 0.04 µM) was 0.688, the relative viability ([3]; first compound 0.1265 µM) was 0.74 and the relative viability ([3]; first compound 1.265 µM) was 0.595. The relative viability ([3]; first compound 4 µM) was 0.607, the relative viability ([4]; first compound 0.08 µM) was 0.874 and the relative viability ([4]; first compound 0.8 µM) was 0.631. The relative viability ([4]; first compound 2.53 µM) was 0.858 and the relative viability ([4]; first compound 8 µM) was 0.681.
